Laboratory results taken from US20110230352A1, “TREATMENT PROCESS FOR A SUPERIOR PLANT IN ORDER TO CONTROL ITS GROWTH AND ARCHITECTURE” (INSTITUT NATIONAL DE LA RECHERCHE AGRONOMIQUE, priority 2008, published 2011).
Entries after “also recorded” stand apart in the source; their conditions may differ.

Legend:
[1] = tested on: mutants rms1 (line M3T-884 from wild pea WT Térèse); test: Comparison of GR24, molecule ABC and sorgolactone by local application onto buds at node 4; type: in vivo; settings: mutant rms1; 100 nM and 500 nM, 10 μl per bud; nine days after the treatment; FIG. 3
Protocol: A second experiment is carried out on mutants rms1 (line M3T-884 from wild pea WT Térèse) in order to compare on these mutants the effect of synthetic strigolactone GR24, of a synthetic molecule ABC from GR24, without any cycle D characteristic of strigolactone, and Sorgolactone, a natural strigolactone.
The plants used are obtained in the same manner as for the plants used in the first experiment.
The solution containing synthetic strigolactone GR24 at 0 nM, 100 nM and 500 nM (4% PEG 1450, 10% ethanol) is applied with the help of a micropipette onto the buds at the node 4 (N4), at the rate of 10 μl per bud.
(§1) The buds and/or ramifications at the first two plant nodes N1 and N2 are cut at the time of the treatment.
The size of the buds at the upper nodes (node N4) is measured nine days after the treatment. The results of the bud growth are illustrated in the chart in FIG. 3.

[2] = tested on: wild pea (line WT Térèse) and mutant pea (line M3T-988 ccd8/rms1 from WT Térèse); test: Application through the roots in hydroponic solution, internodal length and ramification length; type: in vivo
Protocol: To this end, an experiment is carried out in a hydroponic solution in order to bring GR24 into the hydroponic solution through the roots.
In this experiment, wild pea seeds (line WT Térèse) and mutant pea seeds (line M3T-988 ccd8/rms1 from WT Térèse) are first sowed in sand. Eight days later, the resulting plants are brought into the hydroponic system in which the roots are dipped in the nutritive solution. Four days later, a GR24 solution (diastereo isomer no 1) is added to 1 μM in the 47 liters of nutritive solution (4.7 ml GR24 at 10 mM). In this experiment, the plants reach the stage with 3-4 nodes.
Then, the cotyledonal ramifications are removed. The ramifications at the nodes N1 and N2 are kept.
The observation is carried out seven days later after addition of GR24 in the solution.
FIG. 10 represents the internodal length measured 19 days later after the germination on treated and untreated wild plants on one hand and treated and untreated mutant plants on the other hand.
FIG. 11 represents the ramification length (ramifications 3 at node N4) measured 19 days later on treated and untreated wild plants on one hand and treated and untreated mutant plants on the other hand. The ramifications at nodes N1 and N2 have already started at the time of the addition of GR24.

[3] = tested on: mutants rms1 (line M3T-988 from WT Térèse); test: Injection into the stem above node N3, size of bud at N5 (long-distance, dose-response); type: in vivo, pea; settings: rms1 M3T-988; injected 1, 10, 100, 500 nM; eight days after the treatment; FIG. 6
Protocol: To this end, an experiment is carried out on mutants rms1 (line M3T-988 from WT Térèse) obtained in the same manner as for the mutants used in the preceding experiments.
The plants are treated by injecting the solution into the stem above the node N3. More precisely, a cotton thread is introduced into the plant stem with the help of needle and is dipped into the solution to be tested. The GR24 solution used (0 nM, 1 nM, 10 nM, 100 nM and 500 nM) were prepared by diluting in water GR24 solutions kept in acetone at different concentrations so that they have the same volume of acetone (10 μl of acetone in 20 ml of water).
as §1
The “untreated” plants correspond to control plants the ramifications N1 and N2 of which have been cut, but which have not received any injection.
The size of the buds at the node situated a distance above the injection zone (N5) is measured eight days after the treatment.

[4] = tested on: mutants rms1 (line WL5237 from wild pea WT Parvus); test: Local application onto buds at node 3 of plants of different ages; type: in vivo; settings: 1000 nM applied on two days, 9 to 13 day-old plants, buds 0.2 to 1 mm at first treatment, three and seven days after, FIG. 5A
Protocol: A first experiment is carried out on mutants rms1 (line WL5237 from wild pea WT Parvus) in order to compare the effect of synthetic strigolactones GR24 on the size of the treated buds at the time of the treatment.
In this experiment, 20 seeds are used for each treatment, which are sowed in pots (2 plants per pot with a diameter of 15 cm) in a soil mixed to clay balls. The seedling is carried out under glass with a natural light and with an extension of the light period of 18 h light/6 h night by means of incandescent bulbs (60 W).
On the first day of treatment, a solution containing synthetic strigolactone GR24 at 0 nM and 1000 nM (4% PEG 1450, 10% ethanol) is applied with the help of a micropipette onto the buds at the node 3 (N3), at the rate of 10 μl per bud.
On the second day of treatment, a solution containing synthetic strigolactone GR24 at 0 nM and 1000 nM (4% PEG 1450, 10% ethanol) is applied with the help of a micropipette onto the same buds, at the rate of 10 μl per bud.
as §1
The first treatment is carried out on 9, 10, 11, 12 and 13 day-old plants (the seedling were spread out over five days).
The bud size at the node N3 is measured the day of the first treatment (J0) and three and seven days afterwards. The obtained results are illustrated in the charts in FIG. 5A.

[5] = tested on: mutants rms1 (line M3T-884 from wild pea WT Térèse); test: Local application of strigolactone onto axillary buds at node 4, bud growth; type: in vivo; settings: mutant rms1; 100 nM, 10 μl per bud; eight days after the treatment; FIG. 2
Protocol: (§2) A first experiment is carried out simultaneously on mutants rms1 (line M3T-884 from wild pea WT Térèse) and rms4 (line M3T-946 from wild pea WT Térèse).
(§3) 9 seeds are used for each treatment; they are sowed in pots (3 plants per pot) in soil mixed to clay balls. The seedling is carried out under glass with a light period of 16 h light/8 h night.
(§4) The treatment is carried out 10 days after the seedling (Stage with 4 leaves).
(§5) A solution containing synthetic strigolactone GR24 dissolved in acetone at 0 nM and 100 nM (4% PEG 1450, 25% ethanol, 5^0/00 acetone) is applied with the help of a micropipette onto the buds at the node 4 (N4), at the rate of 10 μl per bud.
(§6) The buds and/or ramifications at the first two plant nodes N1 and N2 are cut for favoring the start of the buds at upper nodes.
(§7) The untreated plants correspond to the plants the buds and/or ramifications of which at nodes 1 and 2 have been cut but which have not received any treatment. The control “0 nM” corresponds to the plants treated with the same solution as for the treatment “500 nM” but without any strigolactones.

[6] = tested on: mutants rms4 (line M3T-946 from wild pea WT Térèse); test: as above; type: in vivo; settings: mutant rms4; 100 nM, 10 μl per bud; eight days after the treatment; FIG. 2
Protocol: as §2, §3, §4, §5, §6, §7

[7] = tested on: mutants rms1 (line WL5237 from WT Térèse); test: Decapitation after treatment of buds at node 3; type: in vivo, pea; settings: 1000 nM, two applications, decapitated nine days after the treatment, measured seven days after decapitation, FIG. 7B
Protocol: A first experiment is carried out simultaneously on wild peas (line WT Parvus) and mutants rms1 (line WL5237 from […]). In this experiment, 18 seeds are used for each treatment, which are sowed in pots (2 plants per pot with a diameter of 15 cm) in a soil mixed with sand. The seedling is carried out under glass with natural light and with an extension of the light period of 18 h light/6 h night be means of incandescent bulbs (60 W).
In a first stage, the plants are treated by two successive applications, separated by a 24 hour interval, of a solution (2% PEG 3550, 50% ethanol) containing synthetic strigolactone GR24 at 0 nM or 1000 nM. The solution is applied with the help of a micropipette onto the buds at the node 3 (N3), at the rate of 10 μl per bud.
as §1
The size of the treated buds is measured seven days after the treatment. The chart in FIG. 7A illustrates the results obtained with the buds at the N3.
In a second stage, a first half of the treated mutant plants rms1 are decapitated just above the node 3, nine days after the treatment, the second half is left intact. The buds and/or ramifications at node 3 of the treated plants at 0 nM (which have not been repressed) are cut.
The bud size is measured seven days after the decapitation. […]

[8] = tested on: wild peas WT Térèse; test: Local application onto buds at node 2 of wild pea; type: in vivo; settings: 500 nM, 10 μl per bud, eight days after the treatment, FIG. 4
Protocol: To this end, a third experiment is carried out on wild peas WT Térèse. The plants used are obtained in a identical manner as for the plants used in the first experiment.
The treatment is carried out 10 days after the seedling (stage with 4 to 5 leaves).
A solution containing synthetic strigolactone GR24 at 0 nM and 500 nM (4% PEG, 10% ethanol) is applied with the help of a micropipette onto the buds at the node 2 (N2), at the rate of 10 μl per bud.
The buds and/or ramifications at the first plant node N1 are cut at the time of the treatment.
The bud size at the node N2 is measured eight days after the treatment, the results being plotted in the chart in FIG. 4.

O=C1OC2c3ccccc3CC2/C1=C\O (stereo not drawn) [ABC]
bud growth at node N4, comparison of effects [1]: less efficient than GR24 and sorgolactone

CC1=CC(O/C=C2/C(=O)OC3c4ccccc4CC23)OC1=O (stereo not drawn) [GR24]
internodal length, from internode N4-N5 ([2]; 1 μM in hydroponic solution through the roots, wild and rms1 mutant, 19 days after germination, FIG. 10): has an effect only from the internode N4-N5
ramification length / bud start ([2]; 1 μM in hydroponic solution through the roots, wild and rms1 mutant, measured 19 days later, FIG. 11): induces a reduction of the ramification length
internodal length, internodes N1-N2, N2-N3 and N3-N4 ([2]; 1 μM in hydroponic solution, internodes already developed before addition, FIG. 10): has no action
concentration from which injection above N3 represses the growth of the bud at N5 [3]: ≥ 10 nM
bud size at the node N3, sensitivity of buds of different ages [4]: all sensitive to the treatment
bud growth at N4 [5]: strongly repressed; also recorded: inhibit the growth of said treated buds
bud growth at N4 [6]: not repressed in a significant manner
bud size at N3 after decapitation of plants with buds first inhibited [7]: able to start again when the plant is decapitated
bud growth at node N4, comparison of effects [1]: comparable effects
bud size at the node N2 [8]: has also an action on the growth of the buds

CC1=C[C@H](O/C=C2/C(=O)O[C@@H]3C4=C(CCC[C@@H]4C)C[C@H]23)OC1=O [sorgolactone, Sorgolactone]
bud growth at node N4, comparison of effects [1]: comparable effects
